The conditions of series [1]: 101.33 kPa, Liquid; for mass density: Vibrating tube method; for speed of sound: Pulse-echo method.
The nature of series [2]: molar heat capacity at constant pressure. The note with it: 101.33 kPa, Liquid, Small sample (50 mg) DSC.

± gives the expanded uncertainty stated by the source.

For `CCCCCCCC` [octane], the mass density (as a rule, the mass of a sample divided by its volume) is reported as 706.54 ± 0.26 kg/m3 in series [1] (288.15 K), 702.53 ± 0.26 kg/m3 in series [1] (293.15 K), 698.5 ± 0.27 kg/m3 in series [1] (298.15 K) and 690.34 ± 0.27 kg/m3 in series [1] (308.15 K). Moreover, the speed of sound (commonly how fast a sound wave travels through the sample) in series [1] (298.15 K) is 1172.1 ± 1.3 m/s. The “molar heat capacity at constant pressure” value was 250.12 ± 5 J/K/mol in series [2] (288.15 K), 253.94 ± 5.1 J/K/mol in series [2] (298.15 K) and 258.03 ± 5.2 J/K/mol in series [2] (308.15 K).

For `CCCCCCCCC` [nonane], the mass density in series [1] (288.15 K) turned out to be 721.66 ± 0.41 kg/m3; in series [1] (293.15 K), 717.75 ± 0.41 kg/m3; in series [1] (298.15 K), 713.85 ± 0.41 kg/m3; in series [1] (308.15 K) it was 706.05 ± 0.41 kg/m3. Moreover, the speed of sound in series [1] (298.15 K) came to 1206.3 ± 1.6 m/s. Also, the “molar heat capacity at constant pressure” value in series [2] (288.15 K) was 280.13 ± 5.6 J/K/mol; in series [2] (298.15 K), 284.23 ± 5.7 J/K/mol; in series [2] (308.15 K), 288.8 ± 5.8 J/K/mol.

Regarding `COC(=O)OC` [dimethyl carbonate], the mass density in series [1] (288.15 K) came to 1076.56 ± 0.55 kg/m3; in series [1] (293.15 K) it was 1070.02 ± 0.55 kg/m3; in series [1] (298.15 K), 1063.42 ± 0.55 kg/m3; in series [1] (308.15 K) it was 1050.11 ± 0.54 kg/m3. Besides, the speed of sound in series [1] (298.15 K) stood at 1197.1 ± 1.6 m/s. The entries for the “molar heat capacity at constant pressure” value in series [2] (288.15 K), in series [2] (298.15 K) and in series [2] (308.15 K) were 164.03 ± 3.3 J/K/mol, 165.02 ± 3.3 J/K/mol and 166.3 ± 3.3 J/K/mol, respectively.
